From ChEMBL document CHEMBL5154863, “Design and synthesis of quinolinium-based derivatives targeting FtsZ for antibacterial evaluation and mechanistic study” (Eur J Med Chem, 2022)
Activity calls are given as the source filed them. No cut-off for these calls is given here.

What was measured:
[1] = tested on: Staphylococcus aureus; assay: Antibacterial activity against methicillin-resistant Staphylococcus aureus ATCC BAA-1720 assessed as inhibition of bacterial growth incubated for 20 to 24 hrs by broth micro dilution method; assay type: functional; settings: time 20-24 hrs
[2] = tested on: Enterococcus faecium; assay: Antibacterial activity against vancomycin-resistant Enterococcus faecium clinical isolate assessed as inhibition of bacterial growth incubated for 20 to 24 hrs by broth micro dilution method; assay type: functional; settings: time 20-24 hrs
[3] = tested on: Staphylococcus aureus; assay: Antibacterial activity against methicillin-resistant Staphylococcus aureus ATCC BAA41 assessed as inhibition of bacterial growth incubated for 24 hrs by checker board assay; assay type: functional
[4] = tested on: Staphylococcus aureus; assay: Induction of morphological changes in Staphylococcus aureus ATCC 29213 assessed as enlargement of cell size at 0.5 times MIC for 4 hrs by microscopic analysis; assay type: functional, organism-based
[5] = tested on: Enterococcus faecium; assay: Bactericidal activity against Enterococcus faecium ATCC 700221 assessed as inhibition of bacterial growth incubated for 24 hrs by resazurin dye based microtiter plate assay; assay type: functional
[6] = tested on: Staphylococcus aureus; assay: Antibacterial activity against methicillin-resistant Staphylococcus aureus ATCC 43300 assessed as inhibition of bacterial growth incubated for 20 to 24 hrs by broth micro dilution method; assay type: functional; settings: time 20-24 hrs
[7] = tested on: Staphylococcus aureus; assay: Induction of drug resistance against Staphylococcus aureus ATCC 29213 assessed as fold increase in MIC after 16 passage; assay type: functional
[8] = tested on: Bacillus subtilis; assay: Antibacterial activity against Bacillus subtilis CMCC (B) 63501 assessed as inhibition of bacterial growth incubated for 20 to 24 hrs by broth micro dilution method; assay type: functional; settings: time 20-24 hrs
[9] = tested on: Erythrocyte; assay: Hemolytic activity in Kunming mouse erythrocyte at 1 to 64 ug/ml incubated for 1 hr; assay type: toxicity, cell-based; settings: dose 1-64 µg/ml
[10] = tested on: Staphylococcus aureus; assay: Antibacterial activity against Staphylococcus aureus ATCC 29213 infected in L929 cells assessed as inhibition of bacterial growth incubated for 20 to 24 hrs by broth micro dilution method; assay type: functional; settings: time 20-24 hrs
[11] = tested on: Bacillus subtilis; assay: Induction of morphological changes in Bacillus subtilis CMCC (B) 63501 assessed as elongation of bacterial cell at 0.5 times MIC for 4 hrs (reference value: 3 to 5 um) by microscopic analysis; assay type: functional
[12] = tested on: Klebsiella pneumoniae; assay: Antibacterial activity against NDM-1 expressing Klebsiella pneumoniae ATCC BAA 2470 assessed as inhibition of bacterial growth incubated for 20 to 24 hrs by broth micro dilution method; assay type: functional; settings: time 20-24 hrs
[13] = tested on: Enterococcus faecium; assay: Antibacterial activity against vancomycin resistant Enterococcus faecium ATCC 700221 assessed as inhibition of bacterial growth incubated for 20 to 24 hrs by broth micro dilution method; assay type: functional; settings: time 20-24 hrs

Work on CC1CCN(c2cc(/C=C/c3ccc(N(C)C)cc3)[n+](C)c3ccccc23)CC1.[I-] yielded an MIC [1] of 1 µg/mL, an MIC [2] of 4 µg/mL and an MIC [3] of 8 µg/mL. The Activity [4] was “Active”, the MBC [5] was 4 µg/mL and the MIC [6] was 1 µg/mL. The fold change (FC) [7] was 8, the MIC [8] was 4 µg/mL and the IC5 [9] was 64 µg/mL. For the same molecule, the MIC [10] was 1 µg/mL, the Activity [11] was 70 um and the MIC [12] was > 64 µg/mL. For the same molecule, the MIC [13] was 1 µg/mL.
